How the values were obtained:
Type in all cases: biochemical
PtmS = molecular target: T1, PtmS (Streptomyces pactum, UniProt B7TWM6); assay: HPLC and LC-MS of 3ABA-AMP; details: MgCl2 5 mM, Tris-HCl pH 8.0, 30 °C
T1 sequence (B7TWM6 1-505): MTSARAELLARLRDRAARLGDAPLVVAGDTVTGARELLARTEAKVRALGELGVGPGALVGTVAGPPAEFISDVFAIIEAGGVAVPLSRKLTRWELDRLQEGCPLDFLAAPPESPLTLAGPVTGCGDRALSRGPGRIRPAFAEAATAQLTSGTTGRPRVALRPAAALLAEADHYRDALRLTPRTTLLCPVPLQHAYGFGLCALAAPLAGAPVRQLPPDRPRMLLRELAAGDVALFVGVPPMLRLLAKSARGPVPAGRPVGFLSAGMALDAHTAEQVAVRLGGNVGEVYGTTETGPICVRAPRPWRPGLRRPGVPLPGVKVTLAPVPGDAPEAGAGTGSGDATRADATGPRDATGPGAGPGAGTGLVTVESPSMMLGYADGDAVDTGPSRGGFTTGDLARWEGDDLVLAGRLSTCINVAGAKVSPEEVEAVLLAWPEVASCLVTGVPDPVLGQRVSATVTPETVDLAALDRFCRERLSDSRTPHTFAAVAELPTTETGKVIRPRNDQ

PtmI = molecular target: T2, PtmI (Streptomyces pactum, UniProt A8R0J4); assay: LC-MS of intact protein; details: covalent; holo-PtmI 200 μM, malonyl-CoA 8 mM, Tris-HCl pH 8.0, 30 °C
T2 sequence (A8R0J4 1-94): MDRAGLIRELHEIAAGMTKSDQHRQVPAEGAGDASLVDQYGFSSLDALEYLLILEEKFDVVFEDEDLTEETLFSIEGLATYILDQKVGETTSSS

PtmJ = molecular target: T3, PtmJ (Streptomyces pactum, UniProt A8R0J5); assay: mass spectrometry of GlcNAc-3ABA-SNAC; details: donor UDP-GlcNAc
T3 sequence (A8R0J5 1-318): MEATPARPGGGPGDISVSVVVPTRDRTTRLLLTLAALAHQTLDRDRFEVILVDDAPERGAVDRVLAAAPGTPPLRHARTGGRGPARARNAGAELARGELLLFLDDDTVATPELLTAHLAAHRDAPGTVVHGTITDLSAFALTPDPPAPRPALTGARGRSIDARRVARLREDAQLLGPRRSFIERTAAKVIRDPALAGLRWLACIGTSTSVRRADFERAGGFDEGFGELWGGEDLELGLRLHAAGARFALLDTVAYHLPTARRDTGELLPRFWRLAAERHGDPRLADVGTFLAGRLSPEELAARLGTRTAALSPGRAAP

For `Nc1cccc(C(=O)O)c1` [compound 3, 3-aminobenzoic acid], the “HPLC and LC-MS of 3ABA-AMP; coupled pyrophosphate assay” value (PtmS; ATP 5 mM) was “the purified protein was incubated with 3ABA in the presence of ATP and MgCl2”.
With `Nc1ncnc2c1ncn2[C@@H]1O[C@H](COP(=O)(O)OP(=O)(O)OP(=O)(O)O)[C@@H](O)[C@H]1O` [ATP] the “HPLC and LC-MS of 3ABA-AMP; coupled pyrophosphate assay” value (PtmS; 3ABA 2 mM) was “incubated with 3ABA in the presence of ATP and MgCl2 to give 3-aminobenzoyl-AMP (3ABA-AMP)”.
`CC(C)(COP(=O)(O)OP(=O)(O)OC[C@H]1O[C@@H](n2cnc3c(N)ncnc32)[C@H](O)[C@@H]1OP(=O)(O)O)[C@@H](O)C(=O)NCCC(=O)NCCSC(=O)CC(=O)O` [malonyl-CoA] was tested, and the “LC-MS of intact protein (malonyl-PtmI, self-acylation)” value (PtmI) was “Incubation of the holo-PtmI with malonyl-CoA (Figure 3a) also led to the formation of malonyl-PtmI”.
With `CC(=O)NCCSC(=O)c1cccc(N)c1` [3ABA-SNAC] the “mass spectrometry of GlcNAc-3ABA-SNAC” value (PtmJ) was “PtmJ reaction mixture showing that 3ABA-SNAC can be glycosylated to give GlcNAc-3ABA-SNAC”.

From PMC6642016 (Nature chemical biology, 2019)
